Like-named read-outs stand apart in the source and are kept apart here.
How the values were obtained:
[1] = system: BCF-7 breast cancer cells; assay: preliminary growth inhibition assay on BCF-7 breast cancer cells; type: cell-based
[2] = system: NCI 60 human tumor cell lines, including breast cancer and ovarian cancer cell lines; assay: NCI in vitro 60 cell line human tumor screen, cell line panel; type: cell-based
SR leukemia cell line [3] = assay: NCI in vitro 60 cell line human tumor screen, SR; type: cell-based; conditions: NCI 60 cell line screen
[4] = system: CCRF-CEM leukemia cell line; assay: NCI in vitro 60 cell line human tumor screen, CCRF-CEM; type: cell-based; conditions: NCI 60 cell line screen
SR leukemia cell line [5] = conditions: comparison value for paclitaxel; cited from earlier work
[6] = system: CCRF-CEM leukemia cell line; conditions: comparison value for paclitaxel; cited from earlier work

For `CC1=C(c2ccccc2)C[C@H]2/C=C(/C)CCC[C@H](C)[C@H](O)[C@@H](C)C(=O)C(C)(C)[C@@H](O)CC(=O)O[C@H]12` [Compound 1a], the growth inhibition [1] was “no activity”.

With `CC1=C(c2ccc(C)cn2)C[C@H]2/C=C(/C)CCC[C@H](C)[C@H](O)[C@@H](C)C(=O)C(C)(C)[C@@H](O)CC(=O)O[C@H]12` [Compound 1b, (3S,6R,7S,8S,1′S,5′S)-7,11-Dihydroxy-3,8,8,10,12,16-hexamethyl-2-(5-methyl-pyridin-2-yl)-3a,7,8,10,11,12,13,14,15,17a-decahydro-1H,6H-4-oxa-cyclopentacyclohexadecene-5,9-dione] the “growth inhibitory activity on the other NCI 60 cell lines” value ([2]; all lines other than CCRF-CEM and SR, including breast cancer and ovarian cancer cell lines) was “no significant activity”, the GI50 (SR leukemia cell line [3]) was 2.9 nM and the GI50 [4] was 2.7 nM.

With `C=C(C)CCC[C@H](C)[C@H](O)[C@@H](C)C(=O)C(C)(C)[C@@H](O)CC(=O)O[C@@H]1C(C)=C(c2ccc(C)cn2)C[C@H]1/C=C/c1ccccc1` [Compound 35, 3,7-Dihydroxy-4,4,6,8,12-pentamethyl-5-oxo-tridec-12-enoic acid 2-methyl-3-(5-methyl-pyridin-2-yl)-5-styryl-cyclopent-2-enyl ester] the “activity in the NCI 60 cell line assay” value ([2]; any of the cell lines) was “no significant activity”.

In the case of `CC(=O)O[C@H]1C(=O)[C@@]2(C)[C@H]([C@H](OC(=O)c3ccccc3)[C@]3(O)C[C@H](OC(=O)[C@H](O)[C@@H](NC(=O)c4ccccc4)c4ccccc4)C(C)=C1C3(C)C)[C@]1(OC(C)=O)CO[C@@H]1C[C@@H]2O` [paclitaxel], the GI50 (SR leukemia cell line [5]) is listed as 15.8 nM and the GI50 [6] is listed as 12.6 nM.

— US8435983B2, “Conformationally restrained epothilone analogues as anti-leukemic agents” (The University of Toledo, priority 2007, dated 2013)
